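Grown in 96-well plates, cells were treated for 48 hours with each compound at five concentrations. Insufficient inhibition: endpoint recorded as highest concentration tested. Here, GI50 denotes the concentration required for 50% inhibition of growth.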 The source made the active and inactive calls. Rule as the data show it: active = GI50 up to about 1.1 µM and inactive = higher.
Tests used:
Experiment in all cases: NCI-60 cell line screen, 48 h
[1] = test system: 786-0
[2] = test system: A498
[3] = test system: A549
[4] = test system: CAKI-1
[5] = test system: HCC 2998
[6] = test system: K562
[7] = test system: NCI-H23
[8] = test system: NCI-H522
[9] = test system: OVCAR-3
[10] = test system: RXF 393
[11] = test system: SF-268
[12] = test system: SF-295
[13] = test system: SK-OV-3
[14] = test system: SN12C
[15] = test system: U-251
[16] = test system: UACC-257
[17] = test system: UO-31

Structure (SMILES)	GI50 [1]	GI50 [2]	GI50 [3]	GI50 [4]	GI50 [5]	GI50 [6]	GI50 [7]	GI50 [8]	GI50 [9]	GI50 [10]	GI50 [11]	GI50 [12]	GI50 [13]	GI50 [14]	GI50 [15]	GI50 [16]	GI50 [17]
CCc1cccc(C(C)C)c1N1C(=O)C(=O)C(c2nc3ccccc3s2)C(=O)C1=O	> 50 µM (inactive)	> 50 µM (inactive)	> 50 µM (inactive)	> 50 µM (inactive)	> 50 µM (inactive)	16.3 µM (inactive)	27.9 µM (inactive)	17.7 µM (inactive)	> 25.5 µM (inactive)	> 50 µM (inactive)	> 50 µM (inactive)	> 39.4 µM (inactive)	> 50 µM (inactive)	> 50 µM (inactive)	> 48.3 µM (inactive)	> 39.3 µM (inactive)	> 50 µM (inactive)
Cc1cc(Cl)ccc1NC(=O)CC1SC(NC(=O)c2ccccc2Cl)=NC1=O (configuration not stated)	19 µM (inactive)	> 100 µM (inactive)	81.7 µM (inactive)	19.2 µM (inactive)	59.4 µM (inactive)	17 µM (inactive)	50.2 µM (inactive)	15.1 µM (inactive)	17.5 µM (inactive)	17.7 µM (inactive)	16.9 µM (inactive)	> 100 µM (inactive)	–	17.7 µM (inactive)	15.7 µM (inactive)	16.3 µM (inactive)	21.6 µM (inactive)
Cc1cn2cc(-c3ccncc3)nc2s1	> 100 µM (inactive)	> 100 µM (inactive)	> 100 µM (inactive)	> 100 µM (inactive)	> 100 µM (inactive)	> 51.8 µM (inactive)	> 100 µM (inactive)	> 100 µM (inactive)	> 100 µM (inactive)	–	> 100 µM (inactive)	> 100 µM (inactive)	> 100 µM (inactive)	> 100 µM (inactive)	> 100 µM (inactive)	> 100 µM (inactive)	> 100 µM (inactive)
Cc1ccc(NC(=O)CSc2nnc(Cc3ccccc3)o2)c(C)c1	> 100 µM (inactive)	–	> 100 µM (inactive)	–	–	> 100 µM (inactive)	> 100 µM (inactive)	> 100 µM (inactive)	–	> 100 µM (inactive)	> 100 µM (inactive)	> 100 µM (inactive)	> 100 µM (inactive)	> 100 µM (inactive)	> 100 µM (inactive)	> 100 µM (inactive)	> 100 µM (inactive)
c1ccc(P(=Nc2ccccc2N=P(c2ccccc2)(c2ccccc2)c2ccccc2)(c2ccccc2)c2ccccc2)cc1	0.555 µM (active)	0.986 µM (active)	0.305 µM (active)	0.444 µM (active)	0.942 µM (active)	1.09 µM (active)	0.337 µM (active)	0.274 µM (active)	0.164 µM (active)	1.05 µM (active)	> 100 µM (inactive)	1.11 µM (active)	0.327 µM (active)	0.293 µM (active)	0.326 µM (active)	0.386 µM (active)	2.31 µM (inactive)
O=C(N/C(=C\c1cc(Cl)ccc1Cl)c1nc2c(O)nc(S)nc2[nH]1)c1ccccc1	17.5 µM (inactive)	> 100 µM (inactive)	98.6 µM (inactive)	38.5 µM (inactive)	16.4 µM (inactive)	7.43 µM (inactive)	25.8 µM (inactive)	38 µM (inactive)	43.5 µM (inactive)	21.6 µM (inactive)	33.4 µM (inactive)	37.4 µM (inactive)	98.2 µM (inactive)	30.1 µM (inactive)	32.1 µM (inactive)	–	23.6 µM (inactive)
O=C(/C=C/c1ccc(O)cc1)c1cc(Cl)ccc1O	77.6 µM (inactive)	> 100 µM (inactive)	39.9 µM (inactive)	> 100 µM (inactive)	62.8 µM (inactive)	24.1 µM (inactive)	40.5 µM (inactive)	17.2 µM (inactive)	28.2 µM (inactive)	28.9 µM (inactive)	42.8 µM (inactive)	35.2 µM (inactive)	> 100 µM (inactive)	42.4 µM (inactive)	37.8 µM (inactive)	71.8 µM (inactive)	21.8 µM (inactive)
COC(=O)CC1(O)C(=O)OCc2c1cc1n(c2=O)Cc2c-1nc1ccccc1c2OC (configuration not stated)	0.136 µM (active)	0.724 µM (active)	0.238 µM (active)	0.0673 µM (active)	3.71 µM (inactive)	0.918 µM (active)	0.188 µM (active)	0.29 µM (active)	3.86 µM (inactive)	0.508 µM (active)	0.133 µM (active)	0.151 µM (active)	0.266 µM (active)	0.097 µM (active)	0.0964 µM (active)	5.38 µM (inactive)	1.04 µM (active)
O=C(Nc1ccc(Sc2ccc(/N=N/c3c(O)c(S(=O)(=O)O)cc4cc(S(=O)(=O)O)ccc34)cc2)cc1)c1ccc(/N=N/c2c(O)c(S(=O)(=O)O)cc3cc(S(=O)(=O)O)ccc23)cc1	43.6 µM (inactive)	45.2 µM (inactive)	26.7 µM (inactive)	37.4 µM (inactive)	> 100 µM (inactive)	19.4 µM (inactive)	12.2 µM (inactive)	12.2 µM (inactive)	15.8 µM (inactive)	33.1 µM (inactive)	38.7 µM (inactive)	22.3 µM (inactive)	> 100 µM (inactive)	26.9 µM (inactive)	35.2 µM (inactive)	13.8 µM (inactive)	35.6 µM (inactive)
Cc1cc(N(CCC#N)CCC#N)ccc1/C=C1N=C(/C=C\c2ccccc2)OC\1=O	> 100 µM (inactive)	> 100 µM (inactive)	> 100 µM (inactive)	> 100 µM (inactive)	> 100 µM (inactive)	> 100 µM (inactive)	> 100 µM (inactive)	> 100 µM (inactive)	> 100 µM (inactive)	> 100 µM (inactive)	> 100 µM (inactive)	> 100 µM (inactive)	> 100 µM (inactive)	> 100 µM (inactive)	> 100 µM (inactive)	> 100 µM (inactive)	> 100 µM (inactive)
COC(=O)C(Cc1cc(OC)c(OC)c(OC)c1)C(=O)OC	> 320 µM (inactive)	–	> 320 µM (inactive)	> 320 µM (inactive)	> 320 µM (inactive)	> 320 µM (inactive)	> 320 µM (inactive)	> 320 µM (inactive)	> 320 µM (inactive)	> 320 µM (inactive)	> 320 µM (inactive)	> 320 µM (inactive)	> 320 µM (inactive)	> 320 µM (inactive)	> 320 µM (inactive)	> 320 µM (inactive)	–
O=C(Cc1nc2ccc([N+](=O)[O-])cc2nc1O)C(=O)Nc1ccccc1[N+](=O)[O-]	> 100 µM (inactive)	> 100 µM (inactive)	> 100 µM (inactive)	> 100 µM (inactive)	> 100 µM (inactive)	> 100 µM (inactive)	> 100 µM (inactive)	20.3 µM (inactive)	> 100 µM (inactive)	> 100 µM (inactive)	> 100 µM (inactive)	> 100 µM (inactive)	> 100 µM (inactive)	–	–	> 100 µM (inactive)	> 100 µM (inactive)
COC(=O)c1cc(Cl)ccc1NC(=O)c1ccc([N+](=O)[O-])cc1	14.6 µM (inactive)	17.5 µM (inactive)	19.6 µM (inactive)	15.3 µM (inactive)	29.2 µM (inactive)	26.9 µM (inactive)	18.8 µM (inactive)	–	15.6 µM (inactive)	21.4 µM (inactive)	–	2.42 µM (inactive)	19.7 µM (inactive)	–	7 µM (inactive)	39.2 µM (inactive)	17.2 µM (inactive)
Oc1ccc(C2Oc3cc(O)cc4c3C2c2cc(O)cc3c2C(c2cc(O)cc5c2C4C(c2ccc(O)cc2)O5)C(c2ccc(O)cc2)O3)cc1 (configuration not stated)	14.2 µM (inactive)	> 25 µM (inactive)	> 25 µM (inactive)	> 25 µM (inactive)	8.15 µM (inactive)	7 µM (inactive)	6.11 µM (inactive)	6.55 µM (inactive)	7 µM (inactive)	–	5.12 µM (inactive)	–	–	8.05 µM (inactive)	6.32 µM (inactive)	10.5 µM (inactive)	8.24 µM (inactive)
Cc1ccc(NCCO)cc1	> 100 µM (inactive)	–	> 100 µM (inactive)	> 100 µM (inactive)	–	55 µM (inactive)	> 100 µM (inactive)	> 100 µM (inactive)	> 100 µM (inactive)	–	> 100 µM (inactive)	> 100 µM (inactive)	> 100 µM (inactive)	> 100 µM (inactive)	> 100 µM (inactive)	> 100 µM (inactive)	> 100 µM (inactive)
Cc1c(C(=O)/C=C/c2ccccc2[N+](=O)[O-])[n+]([O-])c2ccccc2[n+]1[O-]	5.53 µM (inactive)	13.3 µM (inactive)	12.5 µM (inactive)	3.61 µM (inactive)	–	3.39 µM (inactive)	4.63 µM (inactive)	3.94 µM (inactive)	3.76 µM (inactive)	–	–	7.5 µM (inactive)	17.9 µM (inactive)	6 µM (inactive)	15.2 µM (inactive)	7.53 µM (inactive)	18.8 µM (inactive)
COc1cccc(NC(=O)/C(CC(=O)CC(c2ccccc2)c2c(O)c3ccccc3oc2=O)=N\NC(C)(C)C)c1OC (configuration not stated)	> 100 µM (inactive)	> 100 µM (inactive)	87.7 µM (inactive)	36.1 µM (inactive)	40.9 µM (inactive)	44.9 µM (inactive)	–	–	78.9 µM (inactive)	–	> 100 µM (inactive)	> 100 µM (inactive)	> 100 µM (inactive)	–	> 100 µM (inactive)	> 100 µM (inactive)	72.1 µM (inactive)
